System: TPO-dependent human megakaryoblastic leukemia cell line (UT-7/TPO)
Assay: Cell culture evaluation: UT-7/TPO cell number count using WST-8 after 6 days of culture on the substrate
Format: cell-based
Description: The ligand-bonded fiber 1 of Example 1 and the fiber of Comparative Example 1 were subjected to cell culture evaluation. As a control for the evaluation, a system in which PSt substrate was configured (positive control: thrombopoietin (TPO) (10 ng/mL) was added to medium, negative control: medium alone) was used. In the following, the CO2 concentration (%) of the CO2 incubator is shown by % by volume of CO2 in the atmosphere.
As the cell, TPO-dependent human megakaryoblastic leukemia cell line (UT-7/TPO; Komatsu et. al., Blood, 1996, 87, pp. 4552-4560) was used. For cell culture, IMDM (Iscove's Modified Dulbecco's Medium) medium (manufactured by Sigma-Aldrich) containing 10% (v/v) FBS and 10 ng/mL TPO (Thrombopoietin, manufactured by PeproTech) was used. The cells were cultured for not less than 2 days in a CO2 incubator at 37° C. while keeping 5% carbon dioxide concentration. The obtained culture medium was centrifuged (manufactured by TOMY SEIKO Co., Ltd., LC-200, 1500 rpm/3 min, room temperature), the supernatant was removed, the above-mentioned IMDM medium free of TPO was added to prepare a cell suspension. The “FBS” here means fetal bovine serum (manufactured by Biological Industries).
The ligand-bonded fiber of Example 1, the fiber of Comparative Example 1, and PSt substrate (for positive control and negative control) were configured in 6 well flat-bottom microplates (manufactured by AS ONE Corporation). […]
After 6 days of cell culture, the cell culture medium was recovered from respective wells in which the ligand-bonded fibers 1-3 of Examples 1-3, the fiber of Comparative Example 1, the substrate of Comparative Example 2, and PSt substrates for positive control and negative control were configured. […] After standing in a CO2 incubator at 37° C. for 120 min, the absorbance at 450 nm was measured by an absorption spectrometer (manufactured by Molecular Devices, SpectraMax). […]
After 6 days of culture, the cell number was counted in the same manner as above by using WST-8. […]

thrombopoietin [positive control]
100%: cell number (%) cell culture, first time (Table 3, UT-7/TPO, 6 days culture, positive control (TPO 10 ng/mL) as 100%) | cell number (%) cell culture, third time (Table 3, same substrate reused a third time, fresh UT-7/TPO cells, 6 days, positive control as 100%) | cell number (%) cell culture, second time (Table 3, same substrate reused after PBS wash, fresh UT-7/TPO cells, 6 days, positive control as 100%)

— patent publication US10724028B2, “Ligand-binding fiber and cell culture substrate using said fiber” (NISSAN CHEMICAL INDUSTRIES, LTD., priority 2014, dated 2020)
